In paper PMC11124413, “Synthesis, Antibacterial Effects, and Toxicity of Licochalcone C” (Pharmaceuticals, 2024):
Converted amounts (≈) assume the structure as drawn.

Columns and labels:
[1] = tested on: M. tuberculosis (ATCC 27294); assay: Antimycobacterial MIC, resazurin microtiter assay; assay type: cell-based; details: ATCC27294; Mycobacterium tuberculosis; mean of triplicates
M. avium (ATCC 25291) = assay: Antimycobacterial MIC, resazurin microtiter assay; assay type: cell-based; details: ATCC25291; Mycobacterium avium; mean of triplicates
M. kansasii (ATCC 12478) = assay: Antimycobacterial MIC, resazurin microtiter assay; assay type: cell-based; details: ATCC12478; Mycobacterium kansasii; mean of triplicates
MSSA (ATCC 6538) = assay: MIC, broth microdilution with resazurin; assay type: cell-based; details: Staphylococcus aureus (MSSA); mean of triplicates; read-out: MIC
[2] = tested on: S. epidermidis (ATCC 14990); assay: MIC, broth microdilution with resazurin; assay type: cell-based; details: ATCC14990; Staphylococcus epidermidis; mean of triplicates
E. faecalis (ATCC 1299) = assay: MIC, broth microdilution with resazurin; assay type: cell-based; details: ATCC1299; Enterococcus faecalis; mean of triplicates
[3] = tested on: S. pneumoniae (ATCC 6305); assay: MIC, broth microdilution with resazurin; assay type: cell-based; details: ATCC6305; Streptococcus pneumoniae; mean of triplicates
H. pylori (ATCC 43526) = assay: MIC, broth microdilution with resazurin; assay type: cell-based; details: ATCC43526; Helicobacter pylori; mean of triplicates; read-out: MIC
[4] = tested on: P. aeruginosa (ATCC 27853); assay: MIC, broth microdilution with resazurin; assay type: cell-based; details: ATCC27853; Pseudomonas aeruginosa; mean of triplicates; read-out: MIC
[5] = tested on: K. pneumoniae (ATCC 23883); assay: MIC, broth microdilution with resazurin; assay type: cell-based; details: ATCC23883; Klebsiella pneumoniae; mean of triplicates; read-out: MIC
[6] = tested on: Escherichia coli (ATCC 25922); assay: MIC, broth microdilution with resazurin; assay type: cell-based; details: ATCC25922, mean of triplicates, read-out: MIC
MSSA planktonic cells = assay: Checkerboard assay; assay type: cell-based, S. aureus
Method: The combinations of LCC with tetracycline and vancomycin were evaluated against MSSA and MRSA, respectively, using a microdilution broth checkerboard assay, according to White and collaborators, adapted with the standard procedure established by the CLSI [51, 54]. The fractional inhibitory concentration (FIC) of the combination between LCC and tetracycline or vancomycin was determined using Mueller–Hinton broth culture medium into 96-well plates, with a final inoculum suspension of 5.0 × 10^5 CFU/mL, incubated at 37 °C for 24 h. After incubation, an aqueous resazurin solution (0.02%) was added to the wells and the FIC values (ratio between the MIC of the drug in combination and the MIC of the drug alone) were determined for each drug (Equations (1) and (2)). The fractional inhibitory concentration index (FICI) was calculated using Equation (3). (1) FICLCC=MIC of drug A in combination/MIC of drug A alone (2) FICD=MIC of drug B in combination/MIC of drug B alone FIC Index (FICI) = FICLCC + FICD(3)
The combination was classified as synergistic (FICI ≤ 0.5), indifferent (0.5 < FICI < 4), and antagonistic (FICI ≥ 4). The assays were performed in triplicate in independent experiments.

MSSA biofilm = assay: Antibiofilm assay (biofilm formation); assay type: cell-based, S. aureus; details: MSSA biofilm formation
[7] = tested on: Galleria mellonella larvae; assay: Systemic toxicity in Galleria mellonella larvae; assay type: in vivo; details: 100% DMSO; after 40 h
Method: The systemic toxicity assay was performed to evaluate the acute toxic effects of LCC, following the procedures described by Megaw [63]. For the experiment, 10 healthy larvae from G. mellonella were randomly selected for each concentration test, with a weight range between 0.2 g and 0.3 g and without melanization aspects. The larvae were chilled on ice for 20 min and had their prolegs cleaned with 70% ethanol. […] Five microliters of the solution were injected into the hemocoel of each larva through the last left proleg using a 25 µL Hamilton syringe. After the administration, the larvae were incubated at 37 °C and their survival was monitored in selected intervals over 72 h. The larvae unable to move when touched and showing elevated levels of melanization were counted as dead. Experiments were performed in triplicate.

[8] = tested on: S. sanguinis (ATCC 10556); assay: MIC, broth microdilution with resazurin; assay type: cell-based; details: ATCC10556; Streptococcus sanguinis; mean of triplicates
S. sobrinus (ATCC 33478) = assay: MIC, broth microdilution with resazurin; assay type: cell-based; details: ATCC33478; Streptococcus sobrinus; mean of triplicates
S. mutans (ATCC 25175) = assay: MIC, broth microdilution with resazurin; assay type: cell-based; details: ATCC25175; Streptococcus mutans; mean of triplicates

NNC(=O)c1ccncc1 [Isoniazid, reference compound]
MIC [1]: 0.5 µg/mL (≈ 3.65 µM) | MIC (M. avium (ATCC 25291)): > 1 µg/mL | MIC (M. kansasii (ATCC 12478)): 1 µg/mL (≈ 7.29 µM)

CN(C)[C@@H]1C(O)=C(C(N)=O)C(=O)[C@@]2(O)C(O)=C3C(=O)c4c(O)cccc4[C@@](C)(O)[C@H]3C[C@@H]12 [Tetracycline, tetracycline, reference compound]
MIC (MSSA (ATCC 6538)): 0.09 µg/mL (≈ 0.203 µM) | MIC [2]: > 5.9 µg/mL | MIC (E. faecalis (ATCC 1299)): 3.3 µg/mL (≈ 7.43 µM) | MIC [3]: 0.4 µg/mL (≈ 0.9 µM) | MIC (H. pylori (ATCC 43526)): 1.47 µg/mL (≈ 3.31 µM) | MIC [4]: 5.9 µg/mL (≈ 13.3 µM) | MIC [5]: 1.47 µg/mL (≈ 3.31 µM) | MIC [6]: 0.73 µg/mL (≈ 1.64 µM) | MIC (MSSA planktonic cells; Staphylococcus aureus, checkerboard, drug alone): 0.09 µg/mL | MIC Combined (MSSA planktonic cells; checkerboard, in combination LCC + TC): 0.18 µg/mL | FICD (fractional inhibitory concentration for the associated drug) (MSSA planktonic cells; combination LCC + TC): 2.0 | MBIC50 (minimum biofilm inhibitory concentration) (MSSA biofilm): 0.046 µg/mL

C[S+](C)[O-] [DMSO, dimethyl sulfoxide, reference compound]
lethality to larvae [7]: total lethality

[H]/N=C(\N/C(=N/[H])NCCCCCCNC(=N)NC(=N)Nc1ccc(Cl)cc1)Nc1ccc(Cl)cc1 [Chlorhexidine, chlorhexidine, reference compound]
MIC [8]: 1.8 µg/mL (≈ 3.56 µM) | MIC (S. sobrinus (ATCC 33478)): 3.6 µg/mL (≈ 7.12 µM) | MIC (S. mutans (ATCC 25175)): 0.4 µg/mL (≈ 0.791 µM)
